45 compounds from patent publication US8008484B2 (priority 2004, dated 2011) can be followed below.

Series [1] concerns Paddy rice (variety: KOSIHIKARI). To be noted: foliar spray, 500 ppm.
In series [2] the test system is Cucumber (variety: SAGAMI HANPAKU). Kind of series: Phytotoxicity studied in the Botrytis cinerea foliage test. Format: in vivo. The following applies: cucumber seedlings, foliar spray, 500 ppm. The procedure: Cucumber (variety: SAGAMI HANPAKU) was cultivated in a plastic pot of 4 cm diameter. A diluted solution of an active compound of the prescribed concentration, prepared in a similar manner as in the above-mentioned Test Example 1, was sprayed to seedlings reached to cotyledon in an amount of 6 ml per 2 pots. One day after the spraying, an inoculant, prepared by mixing a suspension of artificially cultured spores of Botrytis cinerea and agar gel (2×10^4 spores/ml gel), was placed on cotyledons to inoculate and infected in a moisture box kept at 20° C. Four days after the inoculation, the contraction rate per cotyledon was classified and evaluated according to the following standard to obtain the controlling value (%). Phytotoxicity was also studied at the same time. This test is an average of the results of 2 sections 4 cotyledons.

On to `COc1cc(OC)nc(Cc2cc(F)c(Cl)c(F)c2NS(=O)(=O)C(F)F)n1` [Compound 2-125], for which, in series [1], the Phytotoxicity result is listed as “No phytotoxicity was observed”. Regarding `COc1cc(OC)nc(C(=O)c2cccc(F)c2NS(=O)(=O)C(F)F)n1` [Compound 9-25], in series [2], the Phytotoxicity result was “No phytotoxicity was observed”.

`COc1cc(OC)nc(C(O)c2cccc(F)c2NS(=O)(=O)C(F)F)n1` (stereo not shown) [Compound 18-25]: the Phytotoxicity entry in series [2] is “No phytotoxicity was observed”. Take `COc1cc(OC)nc(Cc2ccccc2NS(=O)(=O)C(F)F)n1` [Compound 2-1]: the Phytotoxicity entry in series [2] was “No phytotoxicity was observed”.

For `COc1cc(OC)nc(C(O)c2ccccc2NS(=O)(=O)C(F)F)n1` (stereo not shown) [Compound 18-24], the Phytotoxicity result in series [2] and in series [1] was “No phytotoxicity was observed” throughout. For the compound `COc1cc(OC)nc(C(O)c2ccc(F)c(C)c2NS(=O)(=O)CC(F)(F)F)n1` (racemic) [Compound 12-137], the Phytotoxicity entry in series [1] is “No phytotoxicity was observed”. Same read-out and setting: in the case of `COc1cc(OC)nc(Cc2cc(F)ccc2NS(=O)(=O)C(F)F)n1` [Compound 2-62] it was “No phytotoxicity was observed”. Take `COc1cc(OC)nc(Cc2ccc(F)c(C)c2NS(=O)(=O)CC(F)(F)F)n1` [Compound 13-8]: the Phytotoxicity entry in series [2] is reported as “No phytotoxicity was observed”. On to `COc1cc(OC)nc(C(O)c2cccc(Cl)c2NS(=O)(=O)C(F)F)n1` (stereo not shown) [Compound 18-26], for which the Phytotoxicity entry in series [2] is reported as “No phytotoxicity was observed”.

Turning to `COc1cc(OC)nc(Cc2cccc(F)c2N(C(C)=O)S(=O)(=O)C(F)F)n1` [Compound 2-18], in series [2], the Phytotoxicity entry is recorded as “No phytotoxicity was observed”. Still for that read-out and setting: next, `COc1nc(OC)nc(C(=O)c2ccccc2NS(=O)(=O)C(F)F)n1` [Compound 9-48]: “No phytotoxicity was observed”. In the case of `COc1cc(OC)nc(Cc2ccc(F)c(C)c2NS(=O)(=O)C(F)F)n1` [Compound 2-193], in series [1], the Phytotoxicity result is “No phytotoxicity was observed”. As for `COc1cc(OC)nc(Cc2cccc(C)c2NS(=O)(=O)C(F)F)n1` [Compound 14-37], the Phytotoxicity result in series [2] and in series [1] was “No phytotoxicity was observed” throughout. In the case of `COc1cc(OC)nc(C(Cl)c2cccc(F)c2NS(=O)(=O)C(F)(F)F)n1` (stereo not shown) [Compound 12-127], the Phytotoxicity result in series [1] is listed as “No phytotoxicity was observed”. As for `COc1cc(OC)nc(C(O)c2ccccc2NS(=O)(=O)C(F)(F)F)n1` (stereo not shown) [Compound 18-20], the Phytotoxicity result in series [2] was “No phytotoxicity was observed”. The same measure, in the same setting: next, `COc1cc(OC)nc(C(SC)c2cccc(F)c2NS(=O)(=O)C(F)F)n1` (stereo not shown) [Compound 1-14]: “No phytotoxicity was observed”. For `COc1cc(OC)nc(Cc2cccc(Cl)c2N(C(=O)C2CC2)S(=O)(=O)C(F)F)n1` [Compound 2-191], the Phytotoxicity entry in series [2] and in series [1] was “No phytotoxicity was observed” throughout. Regarding `COc1cc(OC)nc(Cc2ccc(F)cc2NS(=O)(=O)C(F)F)n1` [Compound 2-61], the Phytotoxicity entry in series [1] is “No phytotoxicity was observed”. As to `COc1cc(OC)nc(Cc2cc(C)cc(C)c2NS(=O)(=O)C(F)F)n1` [Compound 2-192], the Phytotoxicity entry in series [2] was “No phytotoxicity was observed”. Consider `COc1cc(OC)nc(C(O)c2cccc(F)c2NS(=O)(=O)CCl)n1` (stereo not shown) [Compound 18-6], for which the Phytotoxicity result in series [2] and in series [1] was “No phytotoxicity was observed” each time.

For `COc1cc(OC)nc(C(O)c2ccc(C)c(C)c2NS(=O)(=O)C(F)F)n1` (racemic) [Compound 4-187], the Phytotoxicity entry in series [2] is “No phytotoxicity was observed”. On the same count and under the same terms, in the case of `COc1cc(OC)nc(Cc2cccc(F)c2NS(=O)(=O)CCl)n1` [Compound 14-8] it was “No phytotoxicity was observed”.

`COc1cc(OC)nc(Cc2cccc(Cl)c2NS(=O)(=O)C(F)F)n1` [Compound 14-35]: the Phytotoxicity entry in series [2] was “No phytotoxicity was observed”. As for `COC(=O)N(c1c(Cl)cccc1Cc1nc(OC)cc(OC)n1)S(=O)(=O)C(F)F` [Compound 2-32], the Phytotoxicity result in series [1] is “No phytotoxicity was observed”. On the same count and under the same terms, next, `COc1cc(OC)nc(C(O)c2cccc(F)c2NS(=O)(=O)C(F)(F)F)n1` (stereo not shown) [Compound 18-21]: “No phytotoxicity was observed”.

For the compound `COc1cc(OC)nc(Cc2cccc(Cl)c2NS(=O)(=O)CC(F)(F)F)n1` [Compound 14-22], in series [2], the Phytotoxicity entry is “No phytotoxicity was observed”. Still for that read-out and setting: next, `COc1cc(OC)nc(C(O)c2ccc(F)cc2NS(=O)(=O)C(F)F)n1` (racemic) [Compound 4-186]: “No phytotoxicity was observed”. In the case of `COc1nc(OC)nc(C(O)c2cccc(C)c2NS(=O)(=O)C(F)F)n1` (stereo not shown) [Compound 18-53], the Phytotoxicity entry in series [1] is listed as “No phytotoxicity was observed”. For the compound `COc1cc(OC)nc(C(=O)c2cccc(Cl)c2NS(=O)(=O)C(F)F)n1` [Compound 9-26], the Phytotoxicity entry in series [2] is reported as “No phytotoxicity was observed”. `COc1cc(OC)nc(Cc2ccccc2NS(=O)(=O)C(F)(F)F)n1` [Compound 14-2]: the Phytotoxicity result in series [2] is “No phytotoxicity was observed”.

As for `COc1cc(OC)nc(C(O)c2cccc(F)c2NS(=O)(=O)CC(F)(F)F)n1` (stereo not shown) [Compound 18-10], the Phytotoxicity result in series [2] and in series [1] was “No phytotoxicity was observed” each time. Regarding `COCc1c(F)ccc(Cc2nc(OC)cc(OC)n2)c1NS(=O)(=O)C(F)F` [Compound 14-40], the Phytotoxicity result in series [2] is “No phytotoxicity was observed”. The same measure, in the same setting: in the case of `COc1cc(OC)nc(Cc2cccc(F)c2NS(=O)(=O)C(Cl)Cl)n1` [Compound 12-136] it was “No phytotoxicity was observed”; in that of `COc1cc(OC)nc(C(O)c2cc(C)cc(F)c2NS(=O)(=O)C(F)F)n1` (racemic) [Compound 4-107], “No phytotoxicity was observed”; in that of `COc1cc(OC)nc(Cc2ccc(F)c(F)c2NS(=O)(=O)C(F)F)n1` [Compound 2-110], “No phytotoxicity was observed”. As to `COc1cc(OC)nc(C(O)c2ccc(F)c(C)c2NS(=O)(=O)C(F)F)n1` (racemic) [Compound 4-184], the Phytotoxicity result in series [1] is given as “No phytotoxicity was observed”.

In the case of `COc1cc(OC)nc(Cc2cc(C)c(F)cc2NS(=O)(=O)C(F)F)n1` [Compound 2-190], in series [1], the Phytotoxicity result was “No phytotoxicity was observed”. Turning to `COc1cc(OC)nc(Cc2c(Cl)ccc(Cl)c2NS(=O)(=O)C(F)F)n1` [Compound 2-138], the Phytotoxicity result in series [2] is reported as “No phytotoxicity was observed”. The same measure, in the same setting: next, `COc1cc(OC)nc(Cc2cccc(Cl)c2NS(=O)(=O)C(F)(F)F)n1` [Compound 14-20]: “No phytotoxicity was observed”. Consider `COc1cc(OC)nc(C(=O)c2cccc(Cl)c2N(C(C)=O)S(=O)(=O)C(F)F)n1` [Compound 3-22], for which the Phytotoxicity entry in series [1] is reported as “No phytotoxicity was observed”. With `COc1cc(OC)nc(C(O)c2cc(C)cc(Cl)c2NS(=O)(=O)C(F)F)n1` (racemic) [Compound 4-130], the Phytotoxicity result in series [2] and in series [1] was “No phytotoxicity was observed” in each case. `COc1nc(OC)nc(C(O)c2cccc(F)c2NS(=O)(=O)C(F)F)n1` (stereo not shown) [Compound 18-51]: in series [2], the Phytotoxicity entry was “No phytotoxicity was observed”. Turning to `COc1cc(OC)nc(C(O)c2cc(C)cc(F)c2NS(=O)(=O)CC(F)(F)F)n1` (racemic) [Compound 12-131], in series [1], the Phytotoxicity entry is given as “No phytotoxicity was observed”.

Consider `COc1cc(OC)nc(Cc2cccc(Cl)c2N(C(C)=O)S(=O)(=O)C(F)F)n1` [Compound 2-31], for which the Phytotoxicity entry in series [2] and in series [1] was “No phytotoxicity was observed” throughout.

Take `COc1cc(OC)nc(C(O)c2cccc(F)c2NS(C)(=O)=O)n1` (stereo not shown) [Compound 18-2]: the Phytotoxicity result in series [1] is given as “No phytotoxicity was observed”.
